From US20010014682A1, “Fibrinogen receptor antagonists” (SmithKline Beecham Corporation, priority 1997, published 2001)

Biological target: T1, fibrinogen receptor (GPIIb-IIIa) (Homo sapiens, UniProt P05106+P08514)
T1 construct: The lectin-retained GPIIb-IIIa was eluted with buffer A containing 10% dextrose; tissue Red Cross; host or cells: human platelets
Assay: Competitive binding to GPIIb-IIIa using [3H]-SK&F-107260 as RGD-type ligand
Conditions: read-out: Ki for inhibition of [3H]-SK&F 107260 binding

T1 sequence (P08514 32-887 limits assumed): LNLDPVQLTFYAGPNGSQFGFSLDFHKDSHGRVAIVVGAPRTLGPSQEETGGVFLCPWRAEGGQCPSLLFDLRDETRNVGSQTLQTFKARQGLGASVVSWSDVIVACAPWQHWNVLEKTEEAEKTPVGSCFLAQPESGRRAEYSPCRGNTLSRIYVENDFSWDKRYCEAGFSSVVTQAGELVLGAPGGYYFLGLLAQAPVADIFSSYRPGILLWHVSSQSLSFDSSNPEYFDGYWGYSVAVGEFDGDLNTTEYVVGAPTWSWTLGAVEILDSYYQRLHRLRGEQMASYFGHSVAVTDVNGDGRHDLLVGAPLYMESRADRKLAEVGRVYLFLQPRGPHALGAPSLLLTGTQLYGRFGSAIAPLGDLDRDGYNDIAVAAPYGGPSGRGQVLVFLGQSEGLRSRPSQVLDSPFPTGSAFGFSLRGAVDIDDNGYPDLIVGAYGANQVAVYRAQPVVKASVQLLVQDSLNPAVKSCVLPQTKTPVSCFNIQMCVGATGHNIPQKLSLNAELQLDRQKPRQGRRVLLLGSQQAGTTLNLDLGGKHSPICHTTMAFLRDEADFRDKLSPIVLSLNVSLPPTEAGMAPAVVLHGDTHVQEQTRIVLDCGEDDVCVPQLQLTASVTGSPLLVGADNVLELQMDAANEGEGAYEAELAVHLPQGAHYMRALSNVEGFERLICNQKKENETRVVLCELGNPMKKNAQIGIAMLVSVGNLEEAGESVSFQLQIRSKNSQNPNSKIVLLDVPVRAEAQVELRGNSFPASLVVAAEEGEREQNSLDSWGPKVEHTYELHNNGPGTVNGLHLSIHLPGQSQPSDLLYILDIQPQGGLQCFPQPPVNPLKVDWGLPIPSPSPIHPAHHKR
T1 sequence (P08514 891-1039 limits assumed): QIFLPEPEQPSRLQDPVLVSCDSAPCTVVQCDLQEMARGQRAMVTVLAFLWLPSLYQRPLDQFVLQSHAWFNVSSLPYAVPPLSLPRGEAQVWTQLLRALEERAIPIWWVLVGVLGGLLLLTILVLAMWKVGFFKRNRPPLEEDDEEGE
T1 sequence (P05106 27-788): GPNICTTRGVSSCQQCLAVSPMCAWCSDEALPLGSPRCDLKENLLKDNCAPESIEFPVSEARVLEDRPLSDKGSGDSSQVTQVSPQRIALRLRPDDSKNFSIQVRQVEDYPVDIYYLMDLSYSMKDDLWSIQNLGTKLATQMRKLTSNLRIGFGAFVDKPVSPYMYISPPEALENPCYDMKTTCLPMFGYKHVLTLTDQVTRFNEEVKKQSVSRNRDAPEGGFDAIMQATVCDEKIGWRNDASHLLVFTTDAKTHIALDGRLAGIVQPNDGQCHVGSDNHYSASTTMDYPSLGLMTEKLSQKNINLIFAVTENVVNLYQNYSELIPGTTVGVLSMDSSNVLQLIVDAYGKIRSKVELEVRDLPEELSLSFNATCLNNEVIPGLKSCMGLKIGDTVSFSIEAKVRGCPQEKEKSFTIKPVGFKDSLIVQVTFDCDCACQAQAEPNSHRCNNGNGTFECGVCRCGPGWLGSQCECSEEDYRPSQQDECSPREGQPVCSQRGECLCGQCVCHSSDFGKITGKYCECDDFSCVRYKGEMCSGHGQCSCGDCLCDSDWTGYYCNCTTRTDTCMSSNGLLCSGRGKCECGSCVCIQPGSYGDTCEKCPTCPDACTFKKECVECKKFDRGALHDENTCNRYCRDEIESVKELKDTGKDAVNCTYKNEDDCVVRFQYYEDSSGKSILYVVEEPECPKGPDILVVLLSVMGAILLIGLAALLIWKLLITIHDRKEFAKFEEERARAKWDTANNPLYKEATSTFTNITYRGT

Ki: ~3.5 nM
Compound: O=C(Nc1ccc(N2CCNCC2)cc1)C1CCN(C(C(=O)O)c2ccccc2)CC1 (stereo not shown) [Example 1, 4-[(4-(1-piperizinyl)phenyl)aminocarbonyl]-1-piperidine-1-phenylacetic Acid]
